Tests used:
[1] = biological target: T1, COX-1 (Homo sapiens, UniProt P23219); assay: Assay for the COX-1 inhibitory activity using U-937 (PGE2 inhibition); type: cell-based; settings: test compound 1 μM; U-937 human lymphoma cells; arachidonic acid substrate; PGE2 quantified; read-out: Cyclooxygenase (COX) Inhibition (%) COX-1 (1 μM)
T1 construct: host or cells: U-937 human lymphoma cells
Protocol: The collected cells were diluted with HBSS (×1, Hank's balanced salt solution) to a concentration of 1×10^6 cells/ml. 1 ml of the dilute cell solution was placed into each well of 12-well plates. 5 μl of 1 μM solution of a test compound in DMSO and 5 μl of DMSO as a control were added to the wells. The wells were incubated in CO2 incubator at 37° C. for 15 minutes. Separately, 10 mM stock solution of arachidonic acid in ethanol was diluted ten times in ethanol to prepare 1 mM solution of arachidonic acid. Arachidonic acid acts as a substrate. 10 μl of the 1 mM solution of arachidonic acid was added to each well and incubated at CO2 incubator at 37° C. for 30 minutes. The cell solution of each well was placed in a centrifuge test tube and centrifuged at 10,000 rpm at 4° C. for 5 minutes. The concentration of PGE2 in the collected cells and the supernatant was quantified by means of a monoclonal kit (Cayman Chemicals). The percentages of PGE2 inhibition in a group of the test compound-treated cells in relation to a group of the DMSO-treated cells were calculated. Based on the calculated values, the COX-1 inhibitory activities were evaluated.
(§1) The percentages of the COX inhibition were calculated according to the following equation: % Inhibition=(concentration of PGE2 in test compound-untreated sample−concentration of PGE2 in test compound-treated sample)/(concentration of PGE2 in test compound-untreated sample)×100

[2] = biological target: T2, COX-2 (Mus musculus, UniProt Q05769); assay: Assay for the COX-2 inhibitory activity using Raw 264.7 cell line (PGE2 inhibition); type: cell-based; settings: RAW264.7; test compound 30 nM; RAW 264.7 cells; aspirin pre-treated, interferon + LPS 18 hours; PGE2 by EIA; read-out: Cyclooxygenase (COX) Inhibition (%) COX-2 (30 nM)
T2 construct: host or cells: RAW 264.7 cells, pre-treated with aspirin, then induced with interferon and LPS
T2 sequence (Q05769 18-604): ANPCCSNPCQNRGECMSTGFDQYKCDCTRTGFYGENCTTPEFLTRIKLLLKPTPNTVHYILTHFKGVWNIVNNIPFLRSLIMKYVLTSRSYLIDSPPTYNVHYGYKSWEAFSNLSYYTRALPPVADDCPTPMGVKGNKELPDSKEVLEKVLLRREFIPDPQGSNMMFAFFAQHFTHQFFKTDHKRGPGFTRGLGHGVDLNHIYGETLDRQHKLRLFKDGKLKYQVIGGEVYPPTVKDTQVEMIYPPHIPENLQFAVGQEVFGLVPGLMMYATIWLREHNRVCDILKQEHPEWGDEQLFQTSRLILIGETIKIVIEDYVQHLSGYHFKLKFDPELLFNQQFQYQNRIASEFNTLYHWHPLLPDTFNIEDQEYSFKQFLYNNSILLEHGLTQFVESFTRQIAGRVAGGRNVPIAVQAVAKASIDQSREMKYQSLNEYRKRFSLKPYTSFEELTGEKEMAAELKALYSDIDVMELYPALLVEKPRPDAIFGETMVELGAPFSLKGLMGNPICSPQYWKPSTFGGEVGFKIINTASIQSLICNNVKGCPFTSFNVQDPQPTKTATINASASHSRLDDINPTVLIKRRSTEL
Protocol: Each well was treated with 250 μM of aspirin and incubated at 37° C. for 2 hours. After the culture media were replaced with new culture media, the new culture media were treated with a test compound (30 nM) and incubated for 30 minutes. Then, each well was treated with interferon ? (100 units/ml) and lipopolysaccharide (LPS, 100 ng/ml) and incubated for 18 hours. The culture media were transferred to other test tubes. The concentration of PGE2 was quantified by means of the EIA kit (Cayman Chemicals).
as §1

T1 sequence (P23219 24-599): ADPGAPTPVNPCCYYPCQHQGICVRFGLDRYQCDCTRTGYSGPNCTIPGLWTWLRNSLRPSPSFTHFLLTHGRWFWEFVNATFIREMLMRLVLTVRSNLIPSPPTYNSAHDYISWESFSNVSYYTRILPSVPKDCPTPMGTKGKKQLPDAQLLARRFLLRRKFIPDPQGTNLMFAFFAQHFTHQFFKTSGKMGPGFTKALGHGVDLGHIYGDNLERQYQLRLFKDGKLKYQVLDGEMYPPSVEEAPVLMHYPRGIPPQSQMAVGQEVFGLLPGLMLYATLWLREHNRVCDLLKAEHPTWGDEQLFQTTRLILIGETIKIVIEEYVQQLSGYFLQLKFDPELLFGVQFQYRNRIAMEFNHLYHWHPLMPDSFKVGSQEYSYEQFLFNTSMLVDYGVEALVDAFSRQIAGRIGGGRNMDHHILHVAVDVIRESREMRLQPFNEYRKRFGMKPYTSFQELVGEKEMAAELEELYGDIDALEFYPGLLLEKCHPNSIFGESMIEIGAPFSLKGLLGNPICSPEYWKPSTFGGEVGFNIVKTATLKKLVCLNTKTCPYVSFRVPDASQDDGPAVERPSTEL

SMILES	inhibition at 1 µM [1] [%]	inhibition at 0.03 µM [2] [%]	melting point [°C]
CS(=O)(=O)c1ccc(-c2ssc(=S)c2-c2ccccc2Br)cc1 [Example 61, 4-(2-bromophenyl)-5-(4-methanesulfonylphenyl)-[1,2]dithiol-3-thione]	23.3	20.1	179 to 180
CS(=O)(=O)c1ccc(-c2ssc(=S)c2-c2ccccc2F)cc1 [Example 62, 4-(2-fluorophenyl)-5-(4-methanesulfonylphenyl)-[1,2]dithiol-3-thione]	26.6	21	173 to 174
CS(=O)(=O)c1ccc(-c2ssc(=S)c2-c2ccc(F)cc2F)cc1 [Example 63, 4-(2,4-difluorophenyl)-5-(4-methanesulfonylphenyl)-[1,2]dithiol-3-thione]	20.3	21.3	148 to 149
Cc1ccc(-c2c(-c3ccc(F)c(F)c3)ssc2=S)cc1 [Example 74, 5-(3,4-difluorophenyl)-4-p-toryl-[1,2]dithiol-3-thione]	26.5	19.2	140 to 142
COc1ccc(-c2c(-c3ccc(F)c(F)c3)ssc2=S)cc1 [Example 75, 5-(3,4-difluorophenyl)-4-(4-methoxyphenyl)-[1,2]dithiol-3-thione]	26.6	19.6	143 to 145
CC(=O)Oc1ccc(-c2c(-c3ccc(S(C)(=O)=O)c(F)c3)ssc2=S)cc1 [Example 79, Acetic acid 4-[5-(3-fluoro-4-methanesulfonylphenyl)-3-thioxo-3H-[1,2]dithiol-4-yl]-phenyl ester]	19.5	30.2	200 to 201
CS(=O)(=O)c1ccc(-c2[nH][nH]c(=S)c2-c2ccc(Cl)c(Cl)c2)cc1 [Example 81, 4-(3,4-dichlorophenyl)-5-(4-methanesulfonylphenyl)-1,2-dihydropyrazole-3-thione]	24.9	24.6	192 to 193
CS(=O)(=O)c1ccc(-c2[nH][nH]c(=S)c2-c2ccc(Cl)cc2)cc1 [Example 82, 4-(4-chlorophenyl)-5-(4-methanesulfonylphenyl)-1,2-dihydropyrazole-3-thione]	24.3	22.2	211 to 213

Now from value to compound:

inhibition at 1 µM [1] [%]	inhibition at 0.03 µM [2] [%]	melting point [°C]	SMILES
23.2	19.7	184 to 185	CS(=O)(=O)c1ccc(-c2ssc(=S)c2-c2ccc(F)cc2Cl)cc1 [Example 59, 4-(2-chloro-4-fluorophenyl)-5-(4-methanesulfonylphenyl)-[1,2]dithiol-3-thione]
26.5	19.3	182 to 183	COc1ccc(-c2c(-c3ccc(S(C)(=O)=O)cc3)ssc2=S)cc1OC [Example 60, 4-(3,4-dimethoxyphenyl)-5-(4-methanesulfonylphenyl)-[1,2]dithiol-3-thione]
21.6	19.8	193 to 194	CS(=O)(=O)c1ccc(-c2ssc(=S)c2-c2ccc(F)c(F)c2)cc1 [Example 64, 4-(3,4-difluorophenyl)-5-(4-methanesulfonylphenyl)-[1,2]dithiol-3-thione]
27.5	23.3	179 to 180	CC(C)Oc1ccc(-c2c(-c3ccc(S(C)(=O)=O)cc3)ssc2=S)cc1 [Example 67, 4-(4-isopropoxylphenyl)-5-(4-methanesulfonylphenyl)-[1,2]dithiol-3-thione]
25.5	22.7	177 to 178	CCCOc1ccc(-c2c(-c3ccc(S(C)(=O)=O)cc3)ssc2=S)cc1 [Example 68, 5-(4-methanesulfonylphenyl)-4-(4-propoxyphenyl)-[1,2]dithiol-3-thione]
24.8	21.3	241 to 243	CC(=O)Oc1ccc(-c2c(-c3ccc(S(C)(=O)=O)cc3)ssc2=S)cc1 [Example 69, Acetic acid 4-[5-(4-methanesulfonylphenyl)-3-thioxo-3H-[1,2]dithiol-4-yl]phenyl ester]
17.5	36	190 to 191	CCOc1ccc(-c2c(-c3ccc(S(C)(=O)=O)cc3Cl)ssc2=S)cc1 [Example 70, 5-(2-chloro-4-methanesulfonylphenyl)-4-(4-ethoxyphenyl)-[1,2]dithiol-3-thione]
28.1	19.3	194 to 195	CS(=O)(=O)c1ccc(-c2ssc(=S)c2-c2ccc(Br)cc2)c(Cl)c1 [Example 72, 4-(4-bromophenyl)-5-(2-chloro-4-methanesulfonylphenyl)-[1,2]dithiol-3-thione]
25.6	20.1	192 to 193	COc1ccc(-c2c(-c3ccc(S(C)(=O)=O)cc3Cl)ssc2=S)cc1 [Example 73, 5-(2-chloro-4-methanesulfonylphenyl)-4-(4-methoxyphenyl)-[1,2]dithiol-3-thione]
21.6	20.3	147 to 149	CC(=O)Oc1ccc(-c2c(-c3ccc(F)c(F)c3)ssc2=S)cc1 [Example 76, Acetic acid 4-[5-(3,4-difluorophenyl)-3-thioxo-3H-[1,2]dithiol-4-yl]-phenyl ester]
